From US6525001B1, “Substituted pyrimidine and pyridine herbicides” (Mid-American Commercialization Corporation, priority 1997, dated 2003)

Legend:
Format in all cases: in vivo
Set-up in all cases: key: 0 is no effect; 10 is complete control
[1] = system: giant foxtail (Setaria faberii); test: Test B pre-/postemergence
From the text: (§1) Seeds of bedstraw (Galium aparine), blackgrass (Alopecurus myosuroides), broadleaf signalgrass (Brachiaria decumbens), cocklebur (Xanthium strumarium), corn (Zea mays), crabgrass (Digitaria sanguinalis), giant foxtail (Setaria faberii), lambsquarters (Chenopodium album), momingglory (Ipomoea hederacea), pigweed (Amaranthus retroflexus), rape (Brassica napus), soybean (Glycine max), sugar beet (Beta vulgaris), velvetleaf (Abutilon theophrasti), wheat (Triticum aestivum), wild oat (Avena fatua) and purple nutsedge (Cyperus rotundus) tubers were planted and treated preemergence with test chemicals formulated in a non-phytotoxic solvent mixture which included a surfactant.
(§2) At the same time, these crop and weed species were also treated with postemergence applications of test chemicals formulated in the same manner. Plants ranged in height from 2 to 18 cm (1- to 4-leaf stage) for postemergence treatments. Plant species in the flood test consisted of rice (Oryza sativa), smallflower flatsedge (Cyperus difformis), duck salad (Heteranthera limosa) and bamyardgrass (Echinochloa crus-galli) grown to the 2-leaf stage for testing. Treated plants and controls were maintained in a greenhouse for twelve to sixteen days, after which all species were compared to controls and visually evaluated. Plant response ratings, summarized in Table B, are based on a scale of 0 to 10 where 0 is no effect and 10 is complete control. A dash (−) response means no test result.

[2] = system: bedstraw (Galium aparine); test: Test B pre-/postemergence
From the text: as §1, §2

[3] = system: velvetleaf (Abutilon theophrasti); test: Test B pre-/postemergence
From the text: as §1, §2

[4] = system: pigweed (Amaranthus retroflexus); test: Test B pre-/postemergence
From the text: as §1, §2

corn (Zea mays) = test: Test B pre-/postemergence
From the text: as §1, §2

[5] = system: crabgrass (Digitaria sanguinalis); test: Test B pre-/postemergence
From the text: as §1, §2

[6] = system: sugar beet (Beta vulgaris); test: Test B pre-/postemergence
From the text: as §1, §2

soybean (Glycine max) = test: Test B pre-/postemergence
From the text: as §1, §2

[7] = system: broadleaf signalgrass (Brachiaria decumbens); test: Test B pre-/postemergence
From the text: as §1, §2

[8] = system: momingglory (Ipomoea hederacea); test: Test B pre-/postemergence
From the text: as §1, §2

[9] = system: wheat (Triticum aestivum); test: Test B pre-/postemergence
From the text: as §1, §2

rape (Brassica napus) = test: Test B pre-/postemergence
From the text: as §1, §2

wild oat (Avena fatua) = test: Test B pre-/postemergence
From the text: as §1, §2

[10] = system: cocklebur (Xanthium strumarium); test: Test B pre-/postemergence
From the text: as §1, §2

[11] = system: blackgrass (Alopecurus myosuroides); test: Test B pre-/postemergence
From the text: as §1, §2

[12] = system: bamyardgrass (Echinochloa crus-galli); test: Test B flood test
Experimental: as §2

[13] = system: duck salad (Heteranthera limosa); test: Test B flood test
Experimental: as §2

rice (Oryza sativa) = test: Test B flood test
Experimental: as §2

[14] = system: smallflower flatsedge (Cyperus difformis); test: Test B flood test
Experimental: as §2

[15] = Preemergence, Rate 62 g/ha, scale of 0 to 10
[16] = Rate 62 g/ha, Postemergence (flood test)
[17] = Rate 125 g/ha, Postemergence section (flood test species)
[18] = Rate 250 g/ha, Postemergence (flood test species)

For `CCc1cnc(-n2ccc(C(F)(F)F)n2)nc1C(=O)c1cccc(C#N)c1` [Compound 72], the “Plant response rating, Giant foxtail” value [1, 15] was 5, the “Giant foxtail plant response rating” value ([1]; Rate 62 g/ha, Postemergence) was 5 and the “Giant foxtail plant response rating” value ([1]; Rate 125 g/ha, Postemergence) was 6. The “Plant response rating, Giant foxtail” value ([1]; Rate 125 g/ha, Preemergence) was 5, the “Plant response rating, Giant foxtail” value ([1]; Rate 250 g/ha, Postemergence) was 7 and the “Plant response rating, Giant foxtail” value ([1]; Rate 250 g/ha, Preemergence) was 7. For the same molecule, the “Plant response rating, Bedstraw” value [2, 15] was 0, the “Plant response rating, Bedstraw” value ([2]; Rate 250 g/ha, Postemergence) was 4 and the “Plant response rating, Bedstraw” value ([2]; Rate 250 g/ha, Preemergence) was 5. The “Plant response rating, Velvetleaf” value [3, 15] was 3, the “Velvetleaf plant response rating” value ([3]; Rate 62 g/ha, Postemergence) was 2 and the “Velvetleaf plant response rating” value ([3]; Rate 125 g/ha, Postemergence) was 3. The “Plant response rating, Velvetleaf” value ([3]; Rate 125 g/ha, Preemergence) was 4, the “Plant response rating, Velvetleaf” value ([3]; Rate 250 g/ha, Postemergence) was 5 and the “Plant response rating, Velvetleaf” value ([3]; Rate 250 g/ha, Preemergence) was 7. For the same molecule, the “Plant response rating, Redroot pigweed” value [4, 15] was 7, the “Redroot pigweed plant response rating” value ([4]; Rate 62 g/ha, Postemergence) was 8 and the “Redroot pigweed plant response rating” value ([4]; Rate 125 g/ha, Postemergence) was 9. For the same molecule, the “Plant response rating, Redroot pigweed” value ([4]; Rate 125 g/ha, Preemergence) was 9, the “Plant response rating, Redroot pigweed” value ([4]; Rate 250 g/ha, Postemergence) was 9 and the “Plant response rating, Redroot pigweed” value ([4]; Rate 250 g/ha, Preemergence) was 9. The “Plant response rating, Corn” value (corn (Zea mays); [15]) was 3, the “Corn plant response rating” value (corn (Zea mays); Rate 62 g/ha, Postemergence) was 2 and the “Corn plant response rating” value (corn (Zea mays); Rate 125 g/ha, Postemergence) was 3. For the same molecule, the “Plant response rating, Corn” value (corn (Zea mays); Rate 125 g/ha, Preemergence) was 4, the “Plant response rating, Corn” value (corn (Zea mays); Rate 250 g/ha, Postemergence) was 5 and the “Plant response rating, Corn” value (corn (Zea mays); Rate 250 g/ha, Preemergence) was 5. For the same molecule, the “Plant response rating, Crabgrass” value [5, 15] was 6, the “Crabgrass plant response rating” value ([5]; Rate 62 g/ha, Postemergence) was 4 and the “Crabgrass plant response rating” value ([5]; Rate 125 g/ha, Postemergence) was 6. For the same molecule, the “Plant response rating, Crabgrass” value ([5]; Rate 125 g/ha, Preemergence) was 9, the “Plant response rating, Crabgrass” value ([5]; Rate 250 g/ha, Postemergence) was 8 and the “Plant response rating, Crabgrass” value ([5]; Rate 250 g/ha, Preemergence) was 9. For the same molecule, the “Plant response rating, Sugarbeets” value [6, 15] was 8, the “Sugarbeets plant response rating” value ([6]; Rate 62 g/ha, Postemergence) was 9 and the “Sugarbeets plant response rating” value ([6]; Rate 125 g/ha, Postemergence) was 9. For the same molecule, the “Plant response rating, Sugarbeets” value ([6]; Rate 125 g/ha, Preemergence) was 10, the “Plant response rating, Sugarbeets” value ([6]; Rate 250 g/ha, Postemergence) was 9 and the “Plant response rating, Sugarbeets” value ([6]; Rate 250 g/ha, Preemergence) was 10. The “Plant response rating, Soybean” value (soybean (Glycine max); [15]) was 0, the “Soybean plant response rating” value (soybean (Glycine max); Rate 62 g/ha, Postemergence) was 2 and the “Soybean plant response rating” value (soybean (Glycine max); Rate 125 g/ha, Postemergence) was 2. The “Plant response rating, Soybean” value (soybean (Glycine max); Rate 125 g/ha, Preemergence) was 3, the “Plant response rating, Soybean” value (soybean (Glycine max); Rate 250 g/ha, Postemergence) was 5 and the “Plant response rating, Soybean” value (soybean (Glycine max); Rate 250 g/ha, Preemergence) was 3. For the same molecule, the “B. signalgrass plant response rating” value ([7]; Rate 62 g/ha, Postemergence) was 2, the “B. signalgrass plant response rating” value ([7]; Rate 62 g/ha, Preemergence) was 1 and the “B. signalgrass plant response rating” value ([7]; Rate 125 g/ha, Postemergence) was 4. For the same molecule, the “Plant response rating, B. signalgrass” value ([7]; Rate 125 g/ha, Preemergence) was 2, the “Plant response rating, B. signalgrass” value ([7]; Rate 250 g/ha, Postemergence) was 6 and the “Plant response rating, B. signalgrass” value ([7]; Rate 250 g/ha, Preemergence) was 7. The “Plant response rating, Morningglory” value [8, 15] was 2, the “Morningglory plant response rating” value ([8]; Rate 125 g/ha, Postemergence) was 4 and the “Plant response rating, Morningglory” value ([8]; Rate 125 g/ha, Preemergence) was 3. For the same molecule, the “Plant response rating, Morningglory” value ([8]; Rate 250 g/ha, Postemergence) was 4, the “Plant response rating, Morningglory” value ([8]; Rate 250 g/ha, Preemergence) was 8 and the “Plant response rating, Wheat” value [9, 15] was 0. For the same molecule, the “Wheat plant response rating” value ([9]; Rate 62 g/ha, Postemergence) was 3, the “Wheat plant response rating” value ([9]; Rate 125 g/ha, Postemergence) was 3 and the “Plant response rating, Wheat” value ([9]; Rate 125 g/ha, Preemergence) was 0. The “Plant response rating, Wheat” value ([9]; Rate 250 g/ha, Postemergence) was 4, the “Plant response rating, Wheat” value ([9]; Rate 250 g/ha, Preemergence) was 3 and the “Plant response rating, Rape” value (rape (Brassica napus); [15]) was 4. The “Rape plant response rating” value (rape (Brassica napus); Rate 62 g/ha, Postemergence) was 3, the “Rape plant response rating” value (rape (Brassica napus); Rate 125 g/ha, Postemergence) was 7 and the “Plant response rating, Rape” value (rape (Brassica napus); Rate 125 g/ha, Preemergence) was 5. For the same molecule, the “Plant response rating, Rape” value (rape (Brassica napus); Rate 250 g/ha, Postemergence) was 7, the “Plant response rating, Rape” value (rape (Brassica napus); Rate 250 g/ha, Preemergence) was 9 and the “Plant response rating, Wild oats” value (wild oat (Avena fatua); [15]) was 1. For the same molecule, the “Wild oats plant response rating” value (wild oat (Avena fatua); Rate 62 g/ha, Postemergence) was 2, the “Wild oats plant response rating” value (wild oat (Avena fatua); Rate 125 g/ha, Postemergence) was 2 and the “Plant response rating, Wild oats” value (wild oat (Avena fatua); Rate 125 g/ha, Preemergence) was 2. The “Plant response rating, Wild oats” value (wild oat (Avena fatua); Rate 250 g/ha, Postemergence) was 4, the “Plant response rating, Wild oats” value (wild oat (Avena fatua); Rate 250 g/ha, Preemergence) was 3 and the “Plant response rating, Cocklebur” value [10, 15] was 0. For the same molecule, the “Cocklebur plant response rating” value ([10]; Rate 62 g/ha, Postemergence) was 3, the “Cocklebur plant response rating” value ([10]; Rate 125 g/ha, Postemergence) was 4 and the “Plant response rating, Cocklebur” value ([10]; Rate 125 g/ha, Preemergence) was 0. The “Plant response rating, Cocklebur” value ([10]; Rate 250 g/ha, Postemergence) was 4, the “Plant response rating, Cocklebur” value ([10]; Rate 250 g/ha, Preemergence) was 0 and the “Plant response rating, Blackgrass” value [11, 15] was 1. The “Blackgrass plant response rating” value ([11]; Rate 62 g/ha, Postemergence) was 4, the “Blackgrass plant response rating” value ([11]; Rate 125 g/ha, Postemergence) was 5 and the “Plant response rating, Blackgrass” value ([11]; Rate 125 g/ha, Preemergence) was 1. The “Plant response rating, Blackgrass” value ([11]; Rate 250 g/ha, Postemergence) was 5, the “Plant response rating, Blackgrass” value ([11]; Rate 250 g/ha, Preemergence) was 4 and the “Barnyardgrass plant response rating” value [12, 16] was 2. The “Barnyardgrass plant response rating” value [12, 17] was 3, the “Plant response rating, Barnyardgrass” value [12, 18] was 6 and the “Ducksalad plant response rating” value [13, 16] was 2. The “Ducksalad plant response rating” value [13, 17] was 2, the “Plant response rating, Ducksalad” value [13, 18] was 3 and the “Rice plant response rating” value (rice (Oryza sativa); [16]) was 0. The “Rice plant response rating” value (rice (Oryza sativa); [17]) was 0, the “Plant response rating, Rice” value (rice (Oryza sativa); [18]) was 2 and the “S. Flatsedge plant response rating” value [14, 16] was 3. For the same molecule, the “S. Flatsedge plant response rating” value [14, 17] was 3 and the “Plant response rating, S. Flatsedge” value [14, 18] was 4.
